Reference: ChEMBL document CHEMBL1152573, “Synthesis and glycogen phosphorylase inhibitory activity of N-(beta-D-glucopyranosyl)amides possessing 1,4-benzodioxane moiety” (Bioorg Med Chem, 2009)

Experiments:
[1] = target: T1, Glycogen phosphorylase, muscle form (Oryctolagus cuniculus, UniProt P00489); assay: Inhibition of rabbit muscle glycogen phosphorylase b by cheng-prusoff equation
T1 sequence (P00489 whole entry): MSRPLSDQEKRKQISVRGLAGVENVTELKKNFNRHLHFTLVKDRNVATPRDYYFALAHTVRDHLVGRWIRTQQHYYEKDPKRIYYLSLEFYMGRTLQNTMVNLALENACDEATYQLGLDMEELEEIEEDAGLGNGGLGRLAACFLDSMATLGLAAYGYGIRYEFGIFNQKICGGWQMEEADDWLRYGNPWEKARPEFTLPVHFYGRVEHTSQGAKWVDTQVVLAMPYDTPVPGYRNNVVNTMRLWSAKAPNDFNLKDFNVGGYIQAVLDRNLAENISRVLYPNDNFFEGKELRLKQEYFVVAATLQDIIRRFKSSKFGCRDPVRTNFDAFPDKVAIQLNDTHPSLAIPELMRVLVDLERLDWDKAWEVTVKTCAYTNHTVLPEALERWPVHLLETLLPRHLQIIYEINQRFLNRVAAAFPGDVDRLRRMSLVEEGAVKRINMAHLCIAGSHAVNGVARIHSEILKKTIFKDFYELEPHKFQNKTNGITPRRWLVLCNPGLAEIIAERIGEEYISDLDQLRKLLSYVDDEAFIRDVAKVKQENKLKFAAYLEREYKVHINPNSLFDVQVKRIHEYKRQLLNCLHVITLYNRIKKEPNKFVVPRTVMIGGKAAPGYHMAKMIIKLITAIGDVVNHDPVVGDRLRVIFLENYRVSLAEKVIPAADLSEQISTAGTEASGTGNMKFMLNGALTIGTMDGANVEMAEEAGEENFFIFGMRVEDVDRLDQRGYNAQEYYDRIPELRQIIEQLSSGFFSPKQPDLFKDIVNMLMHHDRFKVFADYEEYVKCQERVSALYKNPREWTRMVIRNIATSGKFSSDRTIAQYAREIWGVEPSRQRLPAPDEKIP

[2] = target: T1, Glycogen phosphorylase, muscle form; assay: Inhibition of rabbit muscle glycogen phosphorylase b

Structure (SMILES)	Ki [1] [µM]	IC50 [2] [µM]
O=C(N[C@@H]1O[C@H](CO)[C@@H](O)[C@H](O)[C@H]1O)[C@@H]1COc2ccccc2O1	120	300
O=C(N[C@@H]1O[C@H](CO)[C@@H](O)[C@H](O)[C@H]1O)c1ccc2c(c1)OCCO2	252	630
O=C(N[C@@H]1O[C@H](CO)[C@@H](O)[C@H](O)[C@H]1O)C1=COc2ccccc2O1	85	125

Now from value to molecule:

Ki [1] [µM]	IC50 [2] [µM]	Structure (SMILES)
232	580	COc1cc(C(=O)N[C@@H]2O[C@H](CO)[C@@H](O)[C@H](O)[C@H]2O)cc2c1OCCO2
128	320	O=C(N[C@@H]1O[C@H](CO)[C@@H](O)[C@H](O)[C@H]1O)[C@H]1COc2ccccc2O1
268	670	O=C(N[C@@H]1O[C@H](CO)[C@@H](O)[C@H](O)[C@H]1O)c1cc(Br)c2c(c1)OCCO2
